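Tested at 5 concentrations; 48 h exposure; 96-well plates; endpoints linearly interpolated, else capped at highest concentration. Here, GI50 denotes the concentration required for 50% inhibition of growth. TGI: total growth inhibition.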
Assays:
Assay in all cases: inhibition of tumour cell growth, NCI panel, 48 h
EKVX NSCLC = test system: EKVX NSCLC
SK-MEL-2 melanoma = test system: SK-MEL-2 melanoma
SK-MEL-28 melanoma = test system: SK-MEL-28 melanoma
KM12 colon = test system: KM12 colon
SR leukemia = test system: SR leukemia
M14 melanoma = test system: M14 melanoma
RXF 393 renal = test system: RXF 393 renal
UACC-257 melanoma = test system: UACC-257 melanoma
MCF7 breast = test system: MCF7 breast
SK-OV-3 ovarian = test system: SK-OV-3 ovarian

SMILES	TGI (EKVX NSCLC) [µM]	TGI (SK-MEL-2 melanoma) [µM]	TGI (SK-MEL-28 melanoma) [µM]	TGI (KM12 colon) [µM]	TGI (SR leukemia) [µM]	TGI (M14 melanoma) [µM]	TGI (RXF 393 renal) [µM]	TGI (UACC-257 melanoma) [µM]	TGI (MCF7 breast) [µM]	TGI (SK-OV-3 ovarian) [µM]	GI50 (MCF7 breast) [µM]	GI50 (EKVX NSCLC) [µM]	GI50 (SK-MEL-2 melanoma) [µM]	GI50 (SK-MEL-28 melanoma) [µM]	GI50 (KM12 colon) [µM]	GI50 (SR leukemia) [µM]	GI50 (SK-OV-3 ovarian) [µM]	GI50 (RXF 393 renal) [µM]	GI50 (UACC-257 melanoma) [µM]
COc1ccc(-c2nnc3c4ccccc4sn23)cc1	> 100	> 100	> 100	> 100	> 100	> 100	82.5	73.8											
O=C1CNC(=O)N1	> 1120	> 1120	> 1120	> 1120			> 1120	> 1120	> 1120	> 1120									
COc1ccc2c(c1)C(=O)/C(=C/c1ccccc1)C2		> 100	> 100	> 100	> 100	> 100	> 100		> 100	> 100									
Cc1cc(C)c(S(=O)(=O)N(CCCCCCN)OCCCON(CCCCCCN)S(=O)(=O)c2c(C)cc(C)cc2C)c(C)c1	3.19	3.48		4.35		3.03	3.18	3.27	3.66	3.37									
Fc1cc(C2=Nn3c(nnc3-c3cc(F)c(Cl)cc3Cl)SC2)c(Cl)cc1Cl	90.3	> 100	54.3	86.8	> 100		62.5	> 100	> 100	> 100	16.8	24.6	65.3	21.5	28.5	25.4	29.2	23.2	30.2
CC1(C)CCCC2(C)[C@@H]1CC[C@]13C[C@](C)(CC[C@@H]21)[C@@H]3CO (stereo not given in full)			> 100	> 100		> 100	> 100	> 100		> 100									
O=c1n(Cc2ccccc2)c2ccccc2n1CC1CS1 (stereo not given)	> 100	> 100	> 100	> 100	> 100	> 100				> 100									
COc1cc(CN(C)N2C(=O)c3cccc4cc([N+](=O)[O-])cc(c34)C2=O)cc(OC)c1OC		> 100	> 100	> 100	> 100	> 100	90.3		> 100	> 100									
CCOC(=O)c1csc(NC(=O)CCN2CCOCC2)n1	> 100	> 100	> 100		> 100	> 100	> 100	> 100	> 100	> 100									
